Source: patent US8293756B2, “Pharmaceutical compositions comprising nilotinib hydrochloride monohydrate” (Novartis AG, priority 2006, dated 2012)
Where a name gives a salt, the structure may show the parent alone.

Key:
[1] = Solubility in aqueous media / water; type: physicochemical
[2] = Hygroscopic tendency; type: physicochemical

water solubility ([1]; water, background statement)	solubility in aqueous media ([1]; aqueous media)	hygroscopic tendency [2]	Compound
poorly water soluble	–	–	Cc1cn(-c2cc(NC(=O)c3ccc(C)c(Nc4nccc(-c5cccnc5)n4)c3)cc(C(F)(F)F)c2)cn1 [Nilotinib, 4-Methyl-3-[[4-(3-pyridinyl)-2-pyrimidinyl]amino]-N-[5-(4-methyl-1H-imidazol-1-yl) -3-(trifluoromethyl)phenyl] benzamide]
–	low solubility	slight hygroscopic tendency	Cc1cn(-c2cc(NC(=O)c3ccc(C)c(Nc4nccc(-c5cccnc5)n4)c3)cc(C(F)(F)F)c2)cn1 [nilotinib hydrochloride monohydrate, 4-Methyl-N-[3-(4-methyl-1H-imidazol-1-yl) -5-(trifluromethyl)phenyl]-3-[(4-pyridine-3-ylpyrimidin-2-yl)amino]benzamide hydrochloride hydrate]
